Results reported in patent publication USRE39591E1, “6-O-substituted ketolides having antibacterial activity” (Abbott Laboratories, priority 1996, dated 2007).
In brackets after ≈: the same amount, converted by molar mass.

Test system: up to 32 different microorganisms
Assay: in vitro antibacterial activity (MIC), agar dilution on Brain Heart Infusion (BHI) agar with Steers replicator
Type: cell-based
Settings: unit assumed
How it was run: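 Up to 32 strains were replicator-inoculated (1:100, or 1:10 for Micrococcus and Streptococcus) onto BHI agar plates holding serial compound dilutions and kept 20-24 h at 35-37° C. Plates were read visually against drug-free growth controls, with erythromycin A run alongside; MIC was the lowest concentration giving no growth, slight haze or sparse colonies.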

| Compound | MIC (organism code AA) [µg/mL] | MIC (organism code CC) [µg/mL] | MIC (organism code DD) [µg/mL] | MIC (organism code EE) [µg/mL] | MIC (organism code FF) [µg/mL] | MIC (organism code GG) [µg/mL] | MIC (organism code HH) [µg/mL] | MIC (organism code II) [µg/mL] | MIC (organism code JJ) [µg/mL] | MIC (organism code KK) [µg/mL] | MIC (organism code LL) [µg/mL] | MIC (organism code MM) [µg/mL] | MIC (organism code NN) [µg/mL] | MIC (organism code OO) [µg/mL] | MIC (organism code PP) [µg/mL] | MIC (organism code QQ) [µg/mL] | MIC (organism code RR) [µg/mL] | MIC (organism code SS) [µg/mL] | MIC (organism code TT) [µg/mL] | MIC (organism code UU) [µg/mL] | also measured |
| --- | --- | --- | --- | --- | --- | --- | --- | --- | --- | --- | --- | --- | --- | --- | --- | --- | --- | --- | --- | --- | --- |
| CCC1OC(=O)C(C)C(=O)C(C)C(OC2OC(C)CC(N(C)C)C2O)C(C)(OCC=Cc2ccc3ncc(-c4cccnc4)cc3c2)CC(C)C(=O)C(C)C2NC(=O)OC12C (stereo not shown) [Example 274] | 0.1 (≈ 0.119 µM) | > 100 | 0.1 (≈ 0.119 µM) | 0.1 (≈ 0.119 µM) | 0.05 (≈ 0.0593 µM) | > 100 | 0.1 (≈ 0.119 µM) | 0.05 (≈ 0.0593 µM) | 0.01 (≈ 0.0119 µM) | 0.01 (≈ 0.0119 µM) | 0.01 (≈ 0.0119 µM) | 6.2 (≈ 7.35 µM) | 0.1 (≈ 0.119 µM) | 0.01 (≈ 0.0119 µM) | 0.1 (≈ 0.119 µM) | > 100 | 0.2 (≈ 0.237 µM) | > 100 | > 100 | 0.78 (≈ 0.925 µM) | MIC (organism code BB): 0.1 µg/mL (≈ 0.119 µM); MIC (organism code VV): 0.05 µg/mL (≈ 0.0593 µM); MIC (organism code WW): 4 µg/mL (≈ 4.74 µM); MIC (organism code XX): ≤ 0.004 µg/mL; MIC (organism code YY): ≤ 0.004 µg/mL; MIC (organism code ZZ): 8 µg/mL (≈ 9.49 µM); MIC (organism code ZZA): 0.25 µg/mL (≈ 0.297 µM) |
| CC[C@H]1OC(=O)[C@H](C)C(=O)[C@H](C)[C@@H](O[C@@H]2O[C@H](C)C[C@H](N(C)C)[C@H]2O)[C@@](C)(OCC#Cc2ccc3nc(C)ccc3c2)C[C@@H](C)C(=O)[C@H](C)[C@H]2NC(=O)O[C@@]21C [Example 255, Compound of Formula (IX): L is CO, T is NH, R is —CH2—C≡C-(2-methyl-6-quinolyl)] | 0.1 | > 100 | 0.2 | 0.2 | 0.2 | > 100 | 0.1 | 0.05 | 0.02 | 0.02 | 0.02 | 50 | 0.2 | 0.05 | 0.2 | 100 | 0.3 | > 100 | > 100 | 3.1 | MIC (organism code BB): 0.2 µg/mL; MIC (organism code VV): 0.05 µg/mL; MIC (organism code XX): 0.03 µg/mL; MIC (organism code YY): 0.03 µg/mL; MIC (organism code ZZ): 16 µg/mL; MIC (organism code ZZA): 0.25 µg/mL |
| CCC1OC(=O)C(C)C(=O)C(C)C(OC2OC(C)CC(N(C)C)C2O)C(C)(OCCCc2cnc3ccccc3c2)CC(C)C(=O)C(C)C2NC(=O)OC12C (stereo not shown) [Example 242, Compound of Formula (IX): L is CO, T is NH, R is —CH2CH2CH2(3-quinolyl)] | 0.2 | > 100 | 0.2 | 0.2 | 0.2 | > 100 | 0.39 | 0.1 | 0.02 | 0.05 | 0.01 | > 100 | 0.2 | 0.05 | 0.39 | > 100 | 0.78 | > 100 | > 100 | 0.78 | MIC (organism code VV): 0.39 µg/mL; MIC (organism code WW): 8 µg/mL; MIC (organism code XX): 0.03 µg/mL; MIC (organism code YY): 0.03 µg/mL; MIC (organism code ZZ): > 128 µg/mL; MIC (organism code ZZA): 0.25 µg/mL |
| CCC1OC(=O)C(C)C(=O)C(C)C(OC2OC(C)CC(N(C)C)C2O)C(C)(OCC(O)c2ccccc2)CC(C)C(=O)C(C)C2NC(=O)OC12C (single isomer, unassigned) [Example 261B] | 3.1 (≈ 4.31 µM) | > 100 | 6.2 (≈ 8.62 µM) | 3.1 (≈ 4.31 µM) | 3.1 (≈ 4.31 µM) | > 100 | 6.2 (≈ 8.62 µM) | 0.78 (≈ 1.09 µM) | 0.39 (≈ 0.543 µM) | 0.39 (≈ 0.543 µM) | 0.39 (≈ 0.543 µM) | > 100 | 0.78 (≈ 1.09 µM) | 0.39 (≈ 0.543 µM) | 1.56 (≈ 2.17 µM) | > 100 | 6.2 (≈ 8.62 µM) | > 100 | > 100 | 25 (≈ 34.8 µM) | MIC (organism code BB): 3.1 µg/mL (≈ 4.31 µM); MIC (organism code VV): 6.2 µg/mL (≈ 8.62 µM); MIC (organism code WW): 32 µg/mL (≈ 44.5 µM); MIC (organism code XX): 0.5 µg/mL (≈ 0.696 µM); MIC (organism code YY): 0.5 µg/mL (≈ 0.696 µM); MIC (organism code ZZ): > 128 µg/mL; MIC (organism code ZZA): 1 µg/mL (≈ 1.39 µM) |
